Patent US20140249135A1, “PIM KINASE INHIBITORS AND METHODS OF THEIR USE” (NOVARTIS AG, priority 2007, published 2014)
Like-named read-outs stand apart in the source and are kept apart here.

How the values were obtained:
Format in all cases: biochemical
[1] = target: T1, human full length PKCE enzyme (Homo sapiens, UniProt Q02156); test: In vitro PKCE assay; conditions: 10 nM enzyme, 40 uM peptide substrate, 20 uM ATP, KinaseGlo Plus readout; read-out: PKCε IC50
T1 construct: human full length PKCE enzyme purchased from InVitrogen; purchased InVitrogen
T1 sequence (Q02156 1-737): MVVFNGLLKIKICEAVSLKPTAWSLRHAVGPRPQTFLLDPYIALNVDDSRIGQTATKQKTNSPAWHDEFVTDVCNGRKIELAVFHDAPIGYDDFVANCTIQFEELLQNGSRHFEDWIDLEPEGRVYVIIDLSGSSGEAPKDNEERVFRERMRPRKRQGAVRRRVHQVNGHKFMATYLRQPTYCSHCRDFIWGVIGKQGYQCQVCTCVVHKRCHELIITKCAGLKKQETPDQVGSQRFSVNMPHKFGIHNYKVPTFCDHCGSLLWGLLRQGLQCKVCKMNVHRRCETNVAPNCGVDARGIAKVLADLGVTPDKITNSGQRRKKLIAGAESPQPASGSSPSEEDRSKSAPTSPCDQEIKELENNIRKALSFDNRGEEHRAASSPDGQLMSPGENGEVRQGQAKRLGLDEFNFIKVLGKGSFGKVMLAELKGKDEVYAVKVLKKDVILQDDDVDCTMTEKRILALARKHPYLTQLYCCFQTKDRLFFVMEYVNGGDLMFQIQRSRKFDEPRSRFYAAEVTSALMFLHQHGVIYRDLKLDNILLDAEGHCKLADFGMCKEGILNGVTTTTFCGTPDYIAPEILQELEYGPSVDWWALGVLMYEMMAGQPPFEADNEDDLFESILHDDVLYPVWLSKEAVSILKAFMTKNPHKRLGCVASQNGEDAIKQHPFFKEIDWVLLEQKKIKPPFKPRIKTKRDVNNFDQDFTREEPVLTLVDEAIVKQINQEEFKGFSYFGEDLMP

Pim1 kinase = Pim1 kinase (Homo sapiens, UniProt P11309); test: Pim1 ATP depletion assay;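 also: Luciferase-luciferin luminescence readout of residual ATP after PIM1 transfers phosphate to a peptide substrate, 40 µM ATP added, reaction run to roughly half ATP consumption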
Pim2 kinase = Pim2 kinase (Homo sapiens, UniProt Q9P1W9); test: Pim2 ATP depletion assay; conditions: read-out: IC50 (μM) PIM2;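 also: Luciferase-based luminescent readout of ATP remaining after PIM2 phosphorylates a BAD peptide, final 5 nM enzyme, 4 µM ATP, 10 µM peptide, 2.5% DMSO, run to roughly half ATP consumption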
Pim3 kinase = Pim3 kinase (Homo sapiens, UniProt Q86V86); test: Pim3 ATP depletion assay; conditions: read-out: IC50 (μM) PIM3
[2] = Pim1 ATP depletion assay, read-out: IC50 (μM) PIM1

Sequence of Pim2 kinase (Q9P1W9 whole entry): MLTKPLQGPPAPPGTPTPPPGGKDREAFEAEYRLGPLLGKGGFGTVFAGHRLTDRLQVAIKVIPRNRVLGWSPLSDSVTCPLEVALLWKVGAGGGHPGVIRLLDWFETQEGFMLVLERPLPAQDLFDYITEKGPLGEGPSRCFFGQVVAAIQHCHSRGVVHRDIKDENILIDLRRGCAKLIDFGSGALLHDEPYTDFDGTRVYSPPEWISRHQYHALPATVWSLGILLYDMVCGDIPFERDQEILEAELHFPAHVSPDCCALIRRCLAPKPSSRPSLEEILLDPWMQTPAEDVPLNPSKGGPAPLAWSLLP
Sequence of Pim1 kinase (P11309 whole entry): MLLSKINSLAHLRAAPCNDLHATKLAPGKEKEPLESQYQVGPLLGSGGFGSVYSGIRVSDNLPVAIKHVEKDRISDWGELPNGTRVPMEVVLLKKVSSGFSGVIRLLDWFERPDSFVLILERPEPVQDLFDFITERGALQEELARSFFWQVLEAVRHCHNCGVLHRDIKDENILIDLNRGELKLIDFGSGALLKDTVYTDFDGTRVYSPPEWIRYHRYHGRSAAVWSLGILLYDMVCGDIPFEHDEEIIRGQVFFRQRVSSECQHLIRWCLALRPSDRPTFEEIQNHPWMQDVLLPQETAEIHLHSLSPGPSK

Compound | IC50 [1] [µM] | IC50 (Pim1 kinase; [2]) [µM] | IC50 (Pim2 kinase) [µM] | IC50 (Pim3 kinase) [µM] | IC50 (Pim1 kinase) [µM]
Nc1nccnc1C(=O)Nc1cncnc1N1CCCCC1 [Example 128, 3-amino-N-(4-piperidin-1-yl-pyrimidin-5-yl)pyrazine-2-carboxamide] | > 25 | 1 to 10 | > 25 | 10 to 25 | –
Nc1nccnc1C(=O)Nc1[nH]c(=O)ncc1-c1nccs1 [Example 138, 3-amino-N-[2-oxo-5-(1,3-thiazol-2-yl)-2,3-dihydro-pyrimidin-4-yl]pyrazine-2-carboxamide] | > 25 | < 1 | < 1 | < 1 | –
Nc1ncc(Br)nc1C(=O)Nc1[nH]c(=O)ncc1-c1ccco1 [Example 141, 3-amino-6-bromo-N-[5-(2-furyl)-2-oxo-2,3-dihydro-pyrimidin-4-yl]pyrazine-2-carboxamide] | 1 to 10 | < 1 | < 1 | < 1 | –
Cn1cccc1-c1cnc(=O)[nH]c1NC(=O)c1nc(Br)cnc1N [Example 144, 3-amino-6-bromo-N-[5-(1-methyl-1H-pyrrol-2-yl)-2-oxo-2,3-dihydropyrimidin-4-yl]-pyrazine-2-carboxamide] | 1 to 10 | – | – | – | –
Nc1nccnc1C(=O)Nc1[nH]c(=O)ncc1N1CCC(F)CC1 [Example 149, 3-amino-N-[5-(4-fluoro-piperidin-1-yl)-2-oxo-2,3-dihydropyrimidin-4-yl]pyrazine-2-carboxamide] | 1 to 10 | – | – | – | –
Nc1ncc(Br)nc1C(=O)Nc1[nH]c(=O)ncc1N1CCC(C(F)(F)F)CC1 [Example 153, 3-amino-6-bromo-N-{2-oxo-5-[4-(trifluoromethyl)piperidin-1-yl]-2,3-dihydropyrimidin-4-yl}-pyrazine-2-carboxamide] | > 25 | < 1 | < 1 | < 1 | –
Nc1nccnc1C(=O)Nc1[nH]c(=O)ncc1N1CCC(F)(F)CC1 [Example 156, 3-amino-N-[5-(4,4-difluoro-piperidin-1-yl)-2-oxo-2,3-dihydropyrimidin-4-yl]pyrazine-2-carboxamide] | 1 to 10 | < 1 | < 1 | < 1 | –
N#Cc1ccc(N2CCCCC2)c(NC(=O)c2nccnc2N)c1 [Example 171, 3-amino-N-(5-cyano-2-(piperidin-1-yl)phenyl)pyrazine-2-carboxamide] | 10 to 25 | < 1 | 1 to 10 | < 1 | –
Nc1nccnc1C(=O)Nc1cnccc1N1CCC(N)C1 (stereo not shown) [Example 190, 3-amino-N-[4-(3-amino-pyrrolidin-1-yl)pyridin-3-yl]-pyrazine-2-carboxamide] | > 25 | – | – | – | –
NC[C@H]1CCCN1c1ccncc1NC(=O)c1nccnc1N [Example 192, 3-amino-N-{4-[(2R)-2-(amino-methyl)pyrrolidin-1-yl]pyridin-3-yl}pyrazine-2-carboxamide] | > 25 | > 25 | > 25 | > 25 | –
NCCOc1ccncc1NC(=O)c1nccnc1N [Example 194, 3-amino-N-[4-(2-amino-ethoxy)pyridin-3-yl]pyrazine-2-carboxamide] | > 25 | > 25 | > 25 | > 25 | –
NCCC(=O)N1CCN(c2cnc(=O)[nH]c2NC(=O)c2nc(Br)cnc2N)CC1 [Example 241, 3-amino-N-{5-[4-(3-amino-propanoyl)piperazin-1-yl]-2-oxo-2,3-dihydropyrimidin-4-yl}-6-bromopyrazine-2-carboxamide] | 1 to 10 | < 1 | < 1 | < 1 | –
Nc1cccnc1C(=O)Nc1[nH]c(=O)ncc1N1CCCC(N)C1 (stereo not shown) [Example 242, 3-amino-N-[5-(3-aminopiperidin-1-yl)-2-oxo-2,3-dihydro-pyrimidin-4-yl]pyridine-2-carboxamide] | > 25 | < 1 | < 1 | < 1 | –
Nc1cnc(C(=O)Nc2cnccc2N2CCCCC2)c(N)n1 [Example 312, 3,5-diamino-N-(4-(piperidin-1-yl)pyridin-3-yl)pyrazine-2-carboxamide] | 10 to 25 | < 1 | 1 to 10 | < 1 | –
Nc1ncc(-c2ccncc2)nc1C(=O)Nc1cnccc1N1CCCC(N)C1 (stereo not shown) [Example 354, 3-amino-6-pyridin-4-yl-pyrazine-2-carboxylic acid (3-amino-3,4,5,6-tetrahydro-2H-[1,4′]bipyridinyl-3′-yl)-amide] | 1 to 10 | – | – | – | –
Cc1cnc(N)c(C(=O)Nc2cnccc2N2CCCC(N)C2)n1 (stereo not shown) [Example 371, 3-amino-6-methyl-pyrazine-2-carboxylic acid (3-amino-3,4,5,6-tetrahydro-2H-[1,4′]bi-pyridinyl-3′-yl)-amide] | 1 to 10 | < 1 | < 1 | < 1 | –

Continued, values first:

IC50 [1] [µM] | IC50 (Pim1 kinase; [2]) [µM] | IC50 (Pim2 kinase) [µM] | IC50 (Pim3 kinase) [µM] | IC50 (Pim1 kinase) [µM] | Compound
1 to 10 | – | – | – | – | NC(=O)c1ccc(N2CCCCC2)c(NC(=O)c2nccnc2N)c1 [Example 129, 3-amino-N-(5-carbamoyl-2-piperidin-1-ylphenyl)pyrazine-2-carboxamide]
1 to 10 | < 1 | < 1 | < 1 | – | Nc1nccnc1C(=O)Nc1[nH]c(=O)ncc1-c1ccco1 [Example 136, 3-amino-N-[5-(2-furyl)-2-oxo-2,3-dihydropyrimidin-4-yl]-pyrazine-2-carboxamide]
< 1 | < 1 | < 1 | < 1 | – | Nc1nccnc1C(=O)Nc1[nH]c(=O)ncc1-c1cccs1 [Example 137, 3-amino-N-[2-oxo-5-(2-thienyl)-2,3-dihydropyrimidin-4-yl]-pyrazine-2-carboxamide]
< 1 | < 1 | < 1 | < 1 | – | Cn1cccc1-c1cnc(=O)[nH]c1NC(=O)c1nccnc1N [Example 139, 3-amino-N-[5-(1-methyl-1H-pyrrol-2-yl)-2-oxo-2,3-dihydro-pyrimidin-4-yl]pyrazine-2-carboxamide]
1 to 10 | < 1 | < 1 | < 1 | – | Nc1nccnc1C(=O)Nc1[nH]c(=O)ncc1-c1ccccn1 [Example 140, 3-amino-N-(2-oxo-5-pyridin-2-yl-2,3-dihydropyrimidin-4-yl)-pyrazine-2-carboxamide]
< 1 | < 1 | < 1 | < 1 | – | Nc1nccnc1C(=O)Nc1[nH]c(=O)ncc1N1CCC(C(F)(F)F)CC1 [Example 152, 3-amino-N-{2-oxo-5-[4-(trifluoromethyl)piperidin-1-yl]-2,3-dihydropyrimidin-4-yl}-pyrazine-2-carboxamide]
< 1 | < 1 | < 1 | < 1 | – | Nc1nccnc1C(=O)Nc1[nH]c(=O)ncc1N1CCCC(F)C1 (stereo not shown) [Example 154, 3-amino-N-[5-(3-fluoro-piperidin-1-yl)-2-oxo-2,3-dihydropyrimidin-4-yl]pyrazine-2-carboxamide]
< 1 | < 1 | < 1 | < 1 | – | NCCC(=O)N1CCN(c2ccncc2NC(=O)c2nc(Br)cnc2N)CC1 [Example 178, 3-amino-N-{4-[4-(3-amino-propanoyl)piperazin-1-yl]-pyridin-3-yl}-6-bromopyrazine-2-carboxamide]
< 1 | – | 1 to 10 | < 1 | < 1 | NCC(=O)N1CCN(c2ccncc2NC(=O)c2nccnc2N)CC1 [Example 189, 3-amino-N-{4-[4-(amino-acetyl)piperazin-1-yl]pyridin-3-yl}pyrazine-2-carboxamide]
< 1 | – | > 25 | 1 to 10 | < 1 | Nc1nccnc1C(=O)Nc1cnccc1N1CCNCC1 [Example 191, 3-amino-N-(4-piperazin-1-yl-pyridin-3-yl)pyrazine-2-carboxamide]
< 1 | < 1 | < 1 | < 1 | – | NCC1CCCN(c2cnc(=O)[nH]c2NC(=O)c2nc(Br)cnc2N)C1 (stereo not shown) [Example 240, 3-amino-N-{5-[3-(aminomethyl)-piperidin-1-yl]-2-oxo-2,3-dihydropyrimidin-4-yl}-6-bromopyrazine-2-carboxamide]
< 1 | < 1 | < 1 | < 1 | – | Cc1ccccc1-c1cnc(N)c(C(=O)Nc2cnccc2N2CCCC(N)C2)n1 (stereo not shown) [Example 351, 3-amino-6-o-tolyl-pyrazine-2-carboxylic acid (3-amino-3,4,5,6-tetrahydro-2H-[1,4′]bi-pyridinyl-3′-yl)-amide]
